Patent US20250263395A1, “COMPOUNDS THAT MEDIATE PROTEIN DEGRADATION AND METHODS OF USE THEREOF” (Monte Rosa Therapeutics AG, priority 2022, published 2025)

Key:
[1] = biological target: CDK2 (Homo sapiens (Human), UniProt P24941); test: CDK2 NanoBiT assay (HiBiT-tagged CDK2 degradation); assay type: cell-based; conditions: HEK293, HEK293 clonal line, C-terminal HiBiT tag on CDK2, LgBiT; 24 hours
Method in brief: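 HEK293 line with CRISPR knock-in C-terminal HiBiT-tagged CDK2 and stable LgBiT, preincubated 16 h with live-cell substrate, then compound-treated 24 h at 37° C, 5% CO2 (30 μM stock). Luminescence normalized to plate negative and positive controls; EC50 from 3-parameter logistic fit, Hill slope 1.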

[2] = biological target: CRBN-DDB1 (Homo sapiens (Human), UniProt Q96SW2); test: CRBN HTRF assay (Cy5-Thalidomide probe displacement); assay type: binding; conditions: CRBN-DDB1 2.5 nM, Cy5-Thalidomide 100 nM, 30 min; Ki from geometric mean IC50 by Cheng-Prusoff
Method in brief: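 HTRF displacement of Cy5-thalidomide probe (100 nM) from His-CRBN-DDB1 (2.5 nM) with anti-His terbium cryptate, in HEPES/NaCl/TCEP/EDTA/Tween20 buffer. 10-point 1:3 compound series, 30 min at ambient temperature; signal normalised to DMSO and lenalidomide controls, IC50 fitted and Ki derived by Cheng-Prusoff.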

Chain of CRBN-DDB1 (Q96SW2 whole entry): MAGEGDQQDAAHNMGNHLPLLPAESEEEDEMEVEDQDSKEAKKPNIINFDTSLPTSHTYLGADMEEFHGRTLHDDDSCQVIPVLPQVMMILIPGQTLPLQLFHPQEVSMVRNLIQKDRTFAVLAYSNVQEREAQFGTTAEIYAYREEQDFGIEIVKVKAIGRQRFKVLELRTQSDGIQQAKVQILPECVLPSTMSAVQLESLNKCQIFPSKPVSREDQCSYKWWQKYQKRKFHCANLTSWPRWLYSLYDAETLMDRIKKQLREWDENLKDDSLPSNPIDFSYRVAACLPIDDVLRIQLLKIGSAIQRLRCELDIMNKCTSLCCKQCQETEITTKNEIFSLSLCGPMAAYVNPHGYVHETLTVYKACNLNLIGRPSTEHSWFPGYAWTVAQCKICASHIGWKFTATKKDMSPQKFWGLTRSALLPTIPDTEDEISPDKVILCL
Chain of CRBN-DDB1 (Q16531 whole entry partner): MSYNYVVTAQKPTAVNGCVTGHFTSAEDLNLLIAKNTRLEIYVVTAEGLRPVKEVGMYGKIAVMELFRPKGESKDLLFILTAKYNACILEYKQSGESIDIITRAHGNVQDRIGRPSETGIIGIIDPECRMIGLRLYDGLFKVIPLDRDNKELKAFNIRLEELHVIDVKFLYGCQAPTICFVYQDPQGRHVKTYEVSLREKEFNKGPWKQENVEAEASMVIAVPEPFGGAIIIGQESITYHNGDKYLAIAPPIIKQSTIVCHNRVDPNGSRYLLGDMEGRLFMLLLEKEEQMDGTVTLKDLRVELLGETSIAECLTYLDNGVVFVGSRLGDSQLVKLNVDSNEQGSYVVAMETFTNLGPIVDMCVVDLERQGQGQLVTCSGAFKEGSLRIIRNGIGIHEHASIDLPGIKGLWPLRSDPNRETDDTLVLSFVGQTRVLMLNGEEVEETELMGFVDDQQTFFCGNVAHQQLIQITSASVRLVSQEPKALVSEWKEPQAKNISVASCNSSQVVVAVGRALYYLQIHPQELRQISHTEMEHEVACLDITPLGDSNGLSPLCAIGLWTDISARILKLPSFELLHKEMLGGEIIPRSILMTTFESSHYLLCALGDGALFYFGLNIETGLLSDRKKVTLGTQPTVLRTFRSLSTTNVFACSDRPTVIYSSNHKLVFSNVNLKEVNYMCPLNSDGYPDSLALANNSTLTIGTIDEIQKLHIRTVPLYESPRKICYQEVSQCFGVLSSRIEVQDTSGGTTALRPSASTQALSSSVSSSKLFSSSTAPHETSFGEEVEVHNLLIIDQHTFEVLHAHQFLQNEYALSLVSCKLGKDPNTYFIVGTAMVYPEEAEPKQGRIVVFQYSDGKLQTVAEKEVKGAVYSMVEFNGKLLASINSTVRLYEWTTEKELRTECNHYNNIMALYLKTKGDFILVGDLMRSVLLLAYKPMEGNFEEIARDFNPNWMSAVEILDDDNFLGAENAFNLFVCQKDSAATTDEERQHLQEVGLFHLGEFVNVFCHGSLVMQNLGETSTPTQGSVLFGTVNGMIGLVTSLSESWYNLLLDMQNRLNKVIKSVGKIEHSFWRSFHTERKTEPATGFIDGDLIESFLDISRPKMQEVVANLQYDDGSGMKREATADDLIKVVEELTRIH

| Structure (SMILES) | Dmax [1] [%] | Ki [2] [nM] |
| --- | --- | --- |
| O=C1CCC(c2c(F)cc(N3CC(Nc4cc(C5CC6(CCC6)C5)ccn4)C3)cc2F)C(=O)N1 (stereo not shown) [Compound 106, 3-(2,6-difluoro-4-(3-((4-(spiro[3.3]heptan-2-yl)pyridin-2-yl)amino)azetidin-1-yl)phenyl)piperidine-2,6-dione] | 50 to 80 | ≤ 100 |
| CN(C)C(=O)N1CC[C@H](OC(=O)NC2CN(c3cc(F)c(C4CCC(=O)NC4=O)c(F)c3)C2)C1 (stereo partly drawn) [Compound 27, (S)-1-(dimethylcarbamoyl)pyrrolidin-3-yl (1-(4-(2,6-dioxopiperidin-3-yl)-3,5-difluorophenyl)azetidin-3-yl)carbamate] | 10 to 50 | ≤ 100 |
| O=C1CCC(c2c(F)cc(N3CC(NC(=O)OC[C@@H]4C[C@H]5CC[C@@H]4C5)C3)cc2F)C(=O)N1 (stereo partly drawn) [Compound 3, (1R,2R,4S)-bicyclo[2.2.1]heptan-2-ylmethyl (1-(4-(2,6-dioxopiperidin-3-yl)-3,5-difluorophenyl)azetidin-3-yl)carbamate] | > 80 | ≤ 100 |
| Cc1ccc(N2CC(OC(=O)NC3CN(c4cc(F)c(C5CCC(=O)NC5=O)c(F)c4)C3)C2)nc1 (stereo not shown) [Compound 79, 1-(5-methylpyridin-2-yl)azetidin-3-yl (1-(4-(2,6-dioxopiperidin-3-yl)-3,5-difluorophenyl)azetidin-3-yl)carbamate] | 50 to 80 | ≤ 100 |
| O=C1CCC(c2c(F)cc(N3CC(NC(=O)OC4CN(C(=O)Cc5ccccc5)C4)C3)cc2F)C(=O)N1 (stereo not shown) [Compound 74, 1-(2-phenylacetyl)azetidin-3-yl (1-(4-(2,6-dioxopiperidin-3-yl)-3,5-difluorophenyl)azetidin-3-yl)carbamate] | 50 to 80 | ≤ 100 |
| Cc1cccc(N(C)C(=O)C23CC(OC(=O)NC4CN(c5cc(F)c(C6CCC(=O)NC6=O)c(F)c5)C4)(C2)C3)c1 (stereo not shown) [Compound 134, 3-(methyl(m-tolyl)carbamoyl)bicyclo[1.1.1]pentan-1-yl (1-(4-(2,6-dioxopiperidin-3-yl)-3,5-difluorophenyl)azetidin-3-yl)carbamate] | 50 to 80 | ≤ 100 |
| Cc1cc(Cl)ccc1N(C)C(=O)C12CC(OC(=O)NC3CN(c4cc(F)c(C5CCC(=O)NC5=O)c(F)c4)C3)(C1)C2 (stereo not shown) [Compound 112, 3-((4-chloro-2-methylphenyl)(methyl)carbamoyl)bicyclo[1.1.1]pentan-1-yl (1-(4-(2,6-dioxopiperidin-3-yl)-3,5-difluorophenyl)azetidin-3-yl)carbamate] | 10 to 50 | ≤ 100 |
| CN(C(=O)N1CC(OC(=O)NC2CN(c3cc(F)c(C4CCC(=O)NC4=O)c(F)c3)C2)C1)c1ccc(Cl)cc1 (stereo not shown) [Compound 138, 1-((4-chlorophenyl)(methyl)carbamoyl)azetidin-3-yl (1-(4-(2,6-dioxopiperidin-3-yl)-3,5-difluorophenyl)azetidin-3-yl)carbamate] | 50 to 80 | ≤ 100 |
| C[C@@H]1[C@@H](Nc2nnc(-c3ccc(C(F)(F)F)cc3)o2)CN1c1cc(F)c(C2CCC(=O)NC2=O)c(F)c1 (stereo partly drawn) [Compound 141, 3-(2,6-difluoro-4-((2R,3S)-2-methyl-3-((5-(4-(trifluoromethyl)phenyl)-1,3,4-oxadiazol-2-yl)amino)azetidin-1-yl)phenyl)piperidine-2,6-dione] | 50 to 80 | 100 to 1000 |
| O=C1CCC(c2c(F)cc(N3CC(Nc4nnc(-c5ccccn5)o4)C3)cc2F)C(=O)N1 (stereo not shown) [Compound 124, 3-(2,6-difluoro-4-(3-((5-(pyridin-2-yl)-1,3,4-oxadiazol-2-yl)amino)azetidin-1-yl)phenyl)piperidine-2,6-dione] | 10 to 50 | ≤ 100 |
| Cc1cc(N2CC(NC(=O)OC3CN(C(=O)N(C)C4CC4)C3)C2)cc(Cl)c1C1CCC(=O)NC1=O (stereo not shown) [Compound 87, 1-(cyclopropyl(methyl)carbamoyl)azetidin-3-yl (1-(3-chloro-4-(2,6-dioxopiperidin-3-yl)-5-methylphenyl)azetidin-3-yl)carbamate] | 50 to 80 | 100 to 1000 |
| COc1ccc(C(=O)N2CC(OC(=O)NC3CN(c4cc(F)c(C5CCC(=O)NC5=O)c(F)c4)C3)C2)cc1 (stereo not shown) [Compound 21, 1-(4-methoxybenzoyl)azetidin-3-yl (1-(4-(2,6-dioxopiperidin-3-yl)-3,5-difluorophenyl)azetidin-3-yl)carbamate] | 10 to 50 | ≤ 100 |
| O=C1CCC(c2c(F)cc(N3CC(NC(=O)OC4CN(S(=O)(=O)C5CC5)C4)C3)cc2F)C(=O)N1 (stereo not shown) [Compound 42, 1-(cyclopropylsulfonyl)azetidin-3-yl (1-(4-(2,6-dioxopiperidin-3-yl)-3,5-difluorophenyl)azetidin-3-yl)carbamate] | 10 to 50 | ≤ 100 |
| O=C1CCC(c2c(F)cc(N3CC(Nc4nnc(-c5ccc(OC(F)(F)F)cc5)o4)C3)cc2F)C(=O)N1 (stereo not shown) [Compound 103, 3-(2,6-difluoro-4-(3-((5-(4-(trifluoromethoxy)phenyl)-1,3,4-oxadiazol-2-yl)amino)azetidin-1-yl)phenyl)piperidine-2,6-dione] | > 80 | ≤ 100 |
| O=C1CCC(c2c(Cl)cc(N3CC(NC(=O)OCC4CC5(CCC5)C4)C3)cc2Cl)C(=O)N1 (stereo not shown) [Compound 28, spiro[3.3]heptan-2-ylmethyl (1-(3,5-dichloro-4-(2,6-dioxopiperidin-3-yl)phenyl)azetidin-3-yl)carbamate] | > 80 | ≤ 100 |
| Cc1cccc(N(C)C(=O)C23CC(OC(=O)NC4CN(c5cc(F)c(C6CCC(=O)NC6=O)c(F)c5)C4)(C2)C3)c1C (stereo not shown) [Compound 114, 3-((2,3-dimethylphenyl)(methyl)carbamoyl)bicyclo[1.1.1]pentan-1-yl (1-(4-(2,6-dioxopiperidin-3-yl)-3,5-difluorophenyl)azetidin-3-yl)carbamate] | 10 to 50 | ≤ 100 |
| CN(C)C(=O)C12CC(OC(=O)NC3CN(c4cc(F)c(C5CCC(=O)NC5=O)c(F)c4)C3)(C1)C2 (stereo not shown) [Compound 76, 3-(dimethylcarbamoyl)bicyclo[1.1.1]pentan-1-yl (1-(4-(2,6-dioxopiperidin-3-yl)-3,5-difluorophenyl)azetidin-3-yl)carbamate] | 10 to 50 | ≤ 100 |
| O=C1CCC(c2c(F)cc(N3CC(NC(=O)OC4CC5(CCCCC5)C4)C3)cc2F)C(=O)N1 (stereo not shown) [Compound 67, spiro[3.5]nonan-2-yl (1-(4-(2,6-dioxopiperidin-3-yl)-3,5-difluorophenyl)azetidin-3-yl)carbamate] | > 80 | ≤ 100 |
| Cc1ccc(N(C)C(=O)N2CC(OC(=O)NC3CN(c4cc(F)c(C5CCC(=O)NC5=O)c(F)c4)C3)C2)cn1 (stereo not shown) [Compound 109, 1-(methyl (6-methylpyridin-3-yl)carbamoyl) azetidin-3-yl (1-(4-(2,6-dioxopiperidin-3-yl)-3,5-difluorophenyl)azetidin-3-yl) carbamate] | 10 to 50 | ≤ 100 |
| O=C1CCC(c2c(F)cc(N3CC(NC(=O)OC4CN(C(=O)c5ccccc5)C4)C3)cc2F)C(=O)N1 (stereo not shown) [Compound 24, 1-benzoylazetidin-3-yl (1-(4-(2,6-dioxopiperidin-3-yl)-3,5-difluorophenyl)azetidin-3-yl)carbamate] | 10 to 50 | ≤ 100 |
